The record followed here is patent publication US20260373248A1, “DEGRADABLE PEPTOIDS” (Medici Therapeutics, Inc., priority 2023, published 2026).

The nature of data set [1]: Delivery vehicle size and polydispersity by dynamic light scattering. The format is physicochemical. A digest of the protocol:
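LNPs made by microfluidic mixing of ethanolic peptoid/DSPC/cholesterol/DMG-PEG2000 (20:1.79:7.16:1.84 by weight) with mRNA in 10 mM citrate pH 5.0 at 1:3 by volume, then dialyzed overnight at 4 °C against tris-sucrose pH 7.4. Size and PDI read by dynamic light scattering in PBS.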

A further data set has as its system mRNA. The data set is described as follows: mRNA encapsulation (modified Quant-iT RiboGreen assay). The format is physicochemical. As to conditions: for mean percent encapsulation of RNA: RiboGreen, without vs with Triton X-100; for % Encapsulation: mRNA. A digest of the protocol:
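Peptoid nanoparticles were incubated with Triton X-100 for 10 min to release entrapped mRNA, then mixed with RiboGreen reagent and read by fluorescence (ex 485 nm/em 530 nm). Percent encapsulation was derived from the ratio of fluorescence without versus with Triton X-100.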

A further data set concerns firefly luciferase. The data set is described as follows: In vivo firefly luciferase expression after intravenous injection of fLuc mRNA delivery vehicles (IVIS imaging). More on the design: species or system female Balb/c mice. As to conditions: for Total Flux (luciferase expression): fLuc mRNA, intravenous, Balb/c mice; for Total Flux: mice, 2.5 ug fLuc mRNA intravenously, 6 hours post-injection. In outline:
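Female Balb/c mice (6-8 weeks) given 2.5 ug fLuc mRNA in Nutshells IV. At 6 hours, IP D-luciferin (30 mg/mL, 10 μL/g) under isoflurane; IVIS imaging 10 minutes later, then harvested organs imaged ex vivo. Read-out: total photon flux in regions of interest.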

A further data set concerns hEPO. The data set is described as follows: Quantification of hEPO in serum after IV injection of mRNA (Human EPO ELISA). It counts as in vivo. As to conditions: Balb/c mice, 2.5 μg mRNA IV, serum after 6 hours. In outline:
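Balb/c mice received 2.5 μg mRNA encoding human EPO by IV injection; serum was collected after 6 hours. hEPO was measured by sandwich ELISA (biotin-conjugate, streptavidin-HRP, TMB, A450) against kit standards (mIU/mL) and an external standard (ng/mL), with values interpolated and corrected for dilution.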

Data set [2] can be described thus: Peptoid quantity remaining in liver by HPLC-TOF mass spectrometry. The format is in vivo. As to conditions: liver homogenate. Here is the method: Peptoid quantity in liver was determined via high-performance liquid chromatography coupled with time-of-flight mass spectrometer (HPLC-TOF). The entire liver was weighed, and then two sections were isolated using a provided biopsy punch for liver homogenization. Liver homogenate sample was prepared by resuspending 20 mg liver tissue in 400 μL extraction solvent (IPA/MeOH=8/2) containing an internal standard (400 pg/μL) followed by bead homogenization (45 sec per cycle for 3-4 cycles). Homogenized samples were centrifuged at 12,000 rpm for 8 min at 6 °C. The resulting supernatant was collected and stored at −20 °C for further LC analysis. 5 μL of the resulting supernatant sample from solid or liquid tissue was injected into a BEH C8 column on an Agilent 1290 Infinity II liquid chromatograph coupled with an Agilent 6230 LC-TOF system. Concentrations of peptoids were determined by a linear calibration curve (linear range:0.2-50 μg/g for solid tissue). Standard calibration curve solutions were prepared by spiking untreated liver followed by homogenization and centrifugation.

The test system of the next data set is luciferase. Kind of data set: Luciferase expression after local (intramuscular or subcutaneous) administration of mRNA. It counts as in vivo. The following applies: mRNA 0.01 mpk, 6 hours; for IM Flux: intramuscular; for SC Flux: subcutaneous. A digest of the protocol: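 Female Balb/c mice (6-8 weeks) received fLuc mRNA in aminolipidated peptoid Nutshells at 0.01 mpk subcutaneously or intramuscularly, or 0.1 mpk intratumorally. At 6 hours, anesthetized mice were given D-luciferin IP and imaged 10 minutes later; harvested organs were also imaged and total photon flux quantified in regions of interest.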

Where [3] appears, read: DLS in PBS, peptoid:DSPC:Cholesterol:DMG-PEG2000 weight ratio 20:1.79:7.16:1.84, mRNA.

Non-standard residues stand in square brackets, D forms with d. Residues, ends and D or L forms follow the SMILES beside them. *: point of attachment. Gly(N-(3-decanoyloxypropyl)) = CCCCCCCCCC(=O)OCCCNCC(=O)O; N(3-lauroyloxypropyl)Gly = CCCCCCCCCCCC(=O)OCCCNCC(=O)O; N(2-decanoyloxyethyl)Gly = CCCCCCCCCC(=O)OCCNCC(=O)O; Gly(N-3-morpholinopropyl) = O=C(O)CNCCCN1CCOCC1; N(2-ethylhexyl)Gly = CCCCC(CC)CNCC(=O)O; N(CH(CH2OH)2)Gly = O=C(O)CNC(CO)CO; N(octyl)Gly = CCCCCCCCNCC(=O)O; NDecylGly = CCCCCCCCCCNCC(=O)O; For = O=C*

Turning to `CCCCCCCCCC(=O)OCCN(CC(N)=O)C(=O)CN(CCOC(=O)CCCCCCCCC)C(=O)CN(CC(CC)CCCC)C(=O)CN(CCOC(=O)CCCCCCCCC)C(=O)CN(CCOC(=O)CCCCCCCCC)C(=O)CN(CC(CC)CCCC)C(=O)CNC(CO)CO` (centres unmarked) [Compound 105] (H-[N(CH(CH2OH)2)Gly][N(2-ethylhexyl)Gly][N(2-decanoyloxyethyl)Gly][N(2-decanoyloxyethyl)Gly][N(2-ethylhexyl)Gly][N(2-decanoyloxyethyl)Gly][N(2-decanoyloxyethyl)Gly]-NH2), the PDI in data set [1] (setting [3]) is listed as 0.150. In addition, the “Particle Size” value in data set [1] (setting [3]) stood at 75.9 nm; in data set [1] (formulation recipe D22), 75.9 nm; in data set [1] (formulation recipe R1), 55.6 nm; in data set [1] (formulation recipe R4), 59.6 nm; in data set [1] (formulation recipe R5), 63.5 nm; in data set [1] (formulation recipe R9), 64.9 nm. Also, in data set [1] (formulation recipe R10), the “Particle Size” value was determined as 68.6 nm. Moreover, the “mean percent encapsulation of RNA” value with mRNA is 73.2%. Further, the “% Encapsulation” value is 73.2% in the data set with mRNA (formulation recipe D22); 92.7% with mRNA (formulation recipe R1); 73.1% in the data set on mRNA (formulation recipe R4); 94.6% with mRNA (formulation recipe R5); 94.0% in the data set on mRNA (formulation recipe R9); 93.2% in the data set with mRNA (formulation recipe R10). For the same compound, the “Total Flux (luciferase expression)” value in the data set on firefly luciferase (formulation recipe D22) amounted to 1.05E+10 p/s; in the data set on firefly luciferase (formulation recipe R1), 4.15E+08 p/s; in the data set on firefly luciferase (formulation recipe R4), 2.47E+09 p/s; in the data set on firefly luciferase (formulation recipe R5), 1.28E+09 p/s; in the data set with firefly luciferase (formulation recipe R9), 1.56E+09 p/s; with firefly luciferase (formulation recipe R10) it was 2.70E+09 p/s. The “Total Flux” value in the data set with firefly luciferase is 1.05E+10 p/s. The hEPO with hEPO is 580 ng/mL. In addition, in data set [2], the “% of injected dose remaining in liver” value is on record as 7.51%. Moreover, the “IM Flux” value in the data set on luciferase was determined as 2.85E+08 p/s. For the same compound, in the data set on luciferase, the “SC Flux” value was found to be 9.57E+08 p/s.
With `CCCCCCCCCC(=O)OCCCN(CC(=O)N(CC(=O)N(CC(=O)N(CCCOC(=O)CCCCCCCCC)CC(=O)N(CC(N)=O)CC(CC)CCCC)CC(CC)CCCC)CC(CC)CCCC)C(=O)CN(CC(CC)CCCC)C(=O)CNC(CO)CO` (centres unmarked) [Compound 5] (H-[N(CH(CH2OH)2)Gly][N(2-ethylhexyl)Gly][Gly(N-(3-decanoyloxypropyl))][N(2-ethylhexyl)Gly][N(2-ethylhexyl)Gly][Gly(N-(3-decanoyloxypropyl))][N(2-ethylhexyl)Gly]-NH2), the PDI in data set [1] (setting [3]) worked out at 0.076. The “Particle Size” value in data set [1] (setting [3]) is recorded as 86.2 nm; in data set [1] (formulation recipe D22) it was 86.2 nm; in data set [1] (formulation recipe O3), 81.6 nm; in data set [1] (formulation recipe O7), 51.7 nm. In addition, in the data set on mRNA, the “mean percent encapsulation of RNA” value is recorded as 84.8%. Also, the “% Encapsulation” value in the data set with mRNA (formulation recipe D22) is 84.8%; in the data set on mRNA (formulation recipe O3) it was 82.2%; in the data set with mRNA (formulation recipe O7), 93.5%. Also, the “Total Flux (luciferase expression)” value came to 1.77E+09 p/s in the data set with firefly luciferase (formulation recipe D22), 3.25E+09 p/s in the data set on firefly luciferase (formulation recipe O3) and 1.93E+09 p/s in the data set with firefly luciferase (formulation recipe O7). Moreover, the “Total Flux” value in the data set on firefly luciferase was 1.77E+09 p/s. In addition, the hEPO with hEPO amounted to 278 ng/mL. Moreover, the “% of injected dose remaining in liver” value in data set [2] is 14.71%. Moreover, the “IM Flux” value in the data set on luciferase is on record as 1.62E+08 p/s. In the data set with luciferase, the “SC Flux” value amounted to 1.71E+08 p/s.
For the compound `CCCCCCCCCC(=O)OCCCN(CC(=O)N(CC(N)=O)CC(CC)CCCC)C(=O)CN(CCCCCCCC)C(=O)CN(CC(CC)CCCC)C(=O)CN(CCCOC(=O)CCCCCCCCC)C(=O)CN(CCCCCCCC)C(=O)CN(C=O)CCCN1CCOCC1` (centres unmarked) [Compound 110] (For-[Gly(N-3-morpholinopropyl)][N(octyl)Gly][Gly(N-(3-decanoyloxypropyl))][N(2-ethylhexyl)Gly][N(octyl)Gly][Gly(N-(3-decanoyloxypropyl))][N(2-ethylhexyl)Gly]-NH2), in data set [1] (setting [3]), the PDI amounted to 0.088 and the “Particle Size” value is 102.9 nm. Also, in the data set with mRNA, the “mean percent encapsulation of RNA” value is given as 50.5%. The “Total Flux” value in the data set on firefly luciferase came to 2.54E+09 p/s. This compound also registered a hEPO in the data set with hEPO of 333 ng/mL. Also, the “% of injected dose remaining in liver” value in data set [2] was found to be 5.52%. Besides, in the data set on luciferase, the “IM Flux” value is 1.43E+08 p/s and the “SC Flux” value worked out at 2.34E+08 p/s.
Take `CCCCCCCCCCCC(=O)OCCCN(CC(N)=O)C(=O)CN(CC(CC)CCCC)C(=O)CN(CCCCCCCCCC)C(=O)CN(CC(CC)CCCC)C(=O)CN(CCCOC(=O)CCCCCCCCCCC)C(=O)CN(CC(CC)CCCC)C(=O)CNC(CO)CO` (centres unmarked) [Compound 59] (H-[N(CH(CH2OH)2)Gly][N(2-ethylhexyl)Gly][N(3-lauroyloxypropyl)Gly][N(2-ethylhexyl)Gly][NDecylGly][N(2-ethylhexyl)Gly][N(3-lauroyloxypropyl)Gly]-NH2): in data set [1] (setting [3]), the PDI came to 0.106 and the “Particle Size” value is 79.5 nm. In addition, in the data set with mRNA, the “mean percent encapsulation of RNA” value is 95.2%. Further, the “Total Flux” value in the data set on firefly luciferase was determined as 6.47E+08 p/s. This compound also displayed a hEPO with hEPO of 112 ng/mL. Also, the “% of injected dose remaining in liver” value in data set [2] is recorded as −1.85%. For the same compound, in the data set on luciferase, the “IM Flux” value is on record as 6.35E+07 p/s and the “SC Flux” value is recorded as 8.71E+08 p/s.
